The values that follow are results of earlier work, collected in patent publication US8821924B2, “Rhein or diacerein compositions” (Wockhardt Ltd., priority 2007, dated 2014).

Molecules are shown by their SMILES.

For this data set the following is noted: water, alcohols, acetone, dichloromethane and chloroform.

`CC(=O)Oc1cccc2c1C(=O)c1c(OC(C)=O)cc(C(=O)O)cc1C2=O` [Diacerein, 4,5-bis(acetyloxy)9,10-dihydro-4,5-dihydroxy-9,10-dioxo-2-anthracenecarboxylic acid]: the solubility in solvents entry is listed as “practically insoluble”.
